Read-outs that look alike come from different tables or passages of the source. Where only a bound is given, the exact number is not on record here.

For one test, the system named is TTXs sodium channels. Nature of the test: TTXs-sodium channel influx assay (fluorescence, ND7/23 cell line). The format is cell-based, rat. Conditions: ND7/23 cells, veratridine 100 μM; read-out: Na+ influx IC50. How it is done: ND7/23 rat dorsal root ganglion-derived cell line endogenously expresses a mixed population of TTXs sodium channels. These cells lack of TTXr sodium channels as shown by the absence of their respective transcripts.
ND7/23 cells were grown in DMEM supplemented with 10% FBS and 1 mM sodium piruvate. The cells were seeded at 50,000 cells/well on 96 poly-L-lysine-coated plates and further incubated for 18-24 h before use.
The Membrane Potential Kit Assay (Molecular Devices), based on a negatively charged fluorescent dye able to monitor changes in membrane potential caused by the sodium influx due to the channel opening, was used for the assay.
Cells were incubated with the dye loading for 30 minutes at 25° C. Then, 100 nM of the toxin Anemonia sulcata (used as enhancer of the channel opener response) alone or in the presence of TTX (as reference standard) or test compound were added for further 15 minutes.
The fluorescence (excitation:530 nm, emission: 565 nm wavelength) was measured before and after (40-45 s) the automated injection of the sodium channel opener veratridine (100 μM) using a Victor plate reader (Perkin Elmer).
(§1) The inhibition curves were calculated from 5 concentrations, each in triplicate, and the IC50 determined using linear regression analysis.

The test system of test [1] is mice. The test can be described thus: Formalin test. In kind it is in vivo. The conditions noted are these: Mus musculus, po. How it is done:
According to a modified protocol from Rosland et al. (Rosland J. H., Tjolsen A., Maehle B., Hole K. Pain (1990) 42: 235-242), mice were injected subcutaneously (s.c.) with 20 μl of 2.7% solution of formalin into the plantar surface of left hindpaw and placed immediately into clear PVC observation chambers (23×12×13 cm). Pain behaviour was quantified by counting the cumulative licking time (s) of the injected paw. Measurements were taken during the early phase (0-5 min) and late phase (20-40 min) after formalin injection (Tjolsen A., Berge O. G., Hunskaar S., Rosland J. H., Hole K. Pain (1992) 51: 5-17).
The test compound was administered p.o. or s.c. 5-45 minutes before formalin injection in a volume of 10 ml/kg body weight to groups of 10 mice per dose. Control group was treated with vehicle.

For a further test, the target named is MAO-B (Rattus norvegicus (Rat), UniProt P19643). Nature of the test: In vitro MAO-B enzyme activity assay (radioenzymatic, rat brain mitochondria). The format is biochemical. The conditions noted are these: 14C-PEA 0.5 μM. How it is done: Male Wistar rats (Harlan, Italy weighing 175-200 g) were sacrificed under light anaesthesia and brains were rapidly removed and homogenized in 8 volumes of ice-cold 0.32 M sucrose buffer containing 0.1 M EDTA, pH 7.4. The crude homogenate was centrifuged at 2220 rpm for 10 minutes and the supernatant recovered. The pellet was homogenized and centrifuged again. The two supernatants were pooled and centrifuged at 9250 rpm for 10 minutes at +4° C. The pellet was resuspended in fresh buffer and centrifuged at 11250 rpm for 10 minutes at +4° C. The resulting pellet was stored at −80° C. The enzyme activity was assessed with a radioenzymatic assay using the substrate ^14C-phenylethylamine (PEA) specific for MAO-B. The mitochondrial pellet (500 μg protein) was resuspended in 0.1 M phosphate buffer (pH 7.4). 200 μl of the suspension were added to a 50 μl solution of the test compound or buffer, and incubated for 30 min at 37° C. (preincubation) then the substrate (50 μl) was added. The incubation was carried out for 10 minutes at 37° C. (^14C-PEA, 0.5 μM). The reaction was stopped by adding 0.2 ml of perchloric acid. After centrifugation, the deaminated metabolites were extracted with 3 ml of toluene and the radioactive organic phase containing the neutral and/or acidic metabolites formed as a result of MAO-B activity was measured by liquid scintillation spectrometry at 90% efficiency. The MAO-B activity was expressed as nmoles of substrate transformed/mg protein/min.
MAO-B, sequence (P19643 whole entry): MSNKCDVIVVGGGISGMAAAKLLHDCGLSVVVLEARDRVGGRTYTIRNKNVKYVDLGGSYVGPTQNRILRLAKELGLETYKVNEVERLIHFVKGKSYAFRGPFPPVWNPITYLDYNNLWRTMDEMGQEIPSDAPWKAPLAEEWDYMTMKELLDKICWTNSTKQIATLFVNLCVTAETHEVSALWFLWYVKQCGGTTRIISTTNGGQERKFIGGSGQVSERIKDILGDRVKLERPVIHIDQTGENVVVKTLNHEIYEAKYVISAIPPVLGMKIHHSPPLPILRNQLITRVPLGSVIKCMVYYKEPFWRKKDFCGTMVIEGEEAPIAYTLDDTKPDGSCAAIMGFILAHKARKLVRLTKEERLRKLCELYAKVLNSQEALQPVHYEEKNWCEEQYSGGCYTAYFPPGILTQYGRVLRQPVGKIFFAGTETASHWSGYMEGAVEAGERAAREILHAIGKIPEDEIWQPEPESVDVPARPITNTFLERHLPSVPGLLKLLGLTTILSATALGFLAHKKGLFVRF

A further test has as its system L-type calcium channels. The test can be described thus: Calcium channel influx assay (fluorescence, AtT20 cell line). The conditions noted are these: AtT20 cells, 100 mM KCl depolarization; read-out: Ca++ influx IC50. The format is cell-based, mouse. How it is done:
AtT20/D16v-F2 mouse pituitary tumour cell line preferentially expresses L-type calcium channels.
AtT20 cells were grown in DMEM with 10% of FBS, 4 mM glutamine. The cells were seeded at 200,000 cells/well on 96 poly-L-lysine-coated plates and further incubated for 18-24 h, before use.
The Ca^++ Kit Assay (Molecular Devices), which is based on a fluorescent calcium indicator to detect the calcium influx determined by depolarizing conditions, was used for the assay.
Cells were incubated with the calcium dye loading for 30 min at 37° C. Then, ω-conotoxin alone (1 μM) or in presence of nifedipine (as reference standard) or test compound were added for further 15 min.
The fluorescence (excitation: 485-emission: 535 nm wavelength) was measured before and after (30-40 sec) the automated injection of 100 mM KCl depolarizing solution using a Victor plate reader (Perkin Elmer).
as §1

Test [2] addresses Na+ currents in rat cortical neurons. The test can be described thus: Patch clamp evaluation of Na+ currents blockade in rat cortical neurons. In kind it is cell-based. How it is done: Cortical neurons were prepared from embryonic Wistar rats (E17-E19). A female rat at date 17-19 of pregnancy was anesthetized and sacrificed. The fetuses (n=4-5) were dissected and placed in ice-cold Hank's solution (Hank's solution (Life tech.14170-088)+glucose 30%+Pen-Strep 100× (Life Tech. 15140-122) 100U-100 μg/ml and Hepes-NaOH 5 mM). The uterus and placenta were removed, the fetuses were decapitated and the heads were placed in ice-cold Hank's solution. Cells were counted and diluted in Neurobasal medium to a concentration of 400000 cells per poly-D-lysine 5 μg/ml treated Petri dish. Cortical neurons were used from day 6th till day 11th after plating, and once a week Neurobasal medium was changed. Experiments on cortical neurons were carried out using standard whole cell patch clamp methods (Hamill et al., Pfugers Arch., 1981 August, 391(12), 85-100). Membrane currents were recorded and filtered at 5 kHz with an Axon Axopatch 200B amplifier and data digitized with an Axon Digidata 1322A (Axon Instruments, CA, USA). Protocol playing and data acquisition were controlled online with Axon pClamp8 software. Measuring and reference electrodes were AgCl-Ag electrodes. A Sutter Instrument P-87 Puller (CA, USA) was used for pulling patch clamp pipettes with a resistance of 2-3 MΩ from Harward borosilicate glass tubes. Cells were continuously superfused with extracellular solutions, using a solution changer Biologic RSC-200. To test the effect of compounds on sodium currents in cortical neurons, cells were clamped at -90 mV, then a two step protocol was used to determine the voltage dependence of the block. […] Tonic block of resting and depolarized currents at a given drug concentration, was calculated as the difference between the peak Na^+ current in the control external bath solution and peak currents with the test substance divided by control peak. Drug concentration-inhibition curves were obtained by plotting tonic blocks in the resting and depolarized condition, versus drug concentrations. Dose-response curves were fitted to the tonic block data, according to the logistic equation: […] Control bath solution contained (mM): […] Internal pipette solution consisted of (mM): […] Compounds were dissolved as stock solutions (20 mM) in DMSO. They were diluted to the final concentrations in the external solution.

For test [3], the system named is mice. Nature of the test: Maximal electroshock test (MES) in mice. In kind it is in vivo. The conditions noted are these: Mus musculus, iv; mice, MES, i.v.; read-out: MES ED50 mg/kg i.v. An excerpt: The maximal electroshock test (MES) is used commonly in the screening of anti-epileptic drugs in rodent models.
Animals and Apparatus: Male CD1 mice weighing 25 g were used. The procedure described by White et al. (White H. S., Woodhead J. H., Franklin M. R., Swinyard E. A., and Wolf H. H. Antiepileptic Drugs (1995) 4th ed: 99-110, Raven Press, Ltd., New York) was followed. An Ugo Basile electroconvulsive generator (Model ECT UNIT 7801) was used to deliver an electrical stimulus sufficient to produce a hindlimb tonic extensor response in at least 97% of control animals. The stimulus was delivered intra-aurally through clip electrodes in mice (0.7 s of a 40 mA shock, with a pulse train of 80 Hz having a pulse duration of 0.4 ms). The acute effect of compounds administered intraperitoneally (i.p.), subcutaneously (s.c.), intravenously (i.v.) or orally (p.o.) 5-120 minutes before MES induction were examined and compared with a vehicle control group. Ten mice were studied per group. Complete suppression of the hindlimb tonic extensor component of seizures was taken as evidence of anticonvulsant activity.
The compounds of the invention were administered p.o. or i.v., at the doses of 0.1-100 mg/kg.

As to `C[C@H](NCc1ccc(OCc2cccc(F)c2)cc1)C(N)=O` [safinamide, (S)-(+)-2-[4-(3-fluorobenzyloxy)-benzylamino]-propanamide], the IC50 is 7.4 µM in the test on TTXs sodium channels; 0.1 µM on MAO-B; 33 µM in the test with L-type calcium channels; over 100 µM in test [2] (preconditioning potential -110 mV, read-out: IC50 resting (Kr)); 7 µM in test [2] (preconditioning potential ~-50 mV, read-out: IC50 depolarized); 180 µM in test [2] (resting condition, figure in parentheses after >100, read-out: IC50 resting (Kr), value in parentheses). Also, the results for the ED50 in the test with mice [1] and in the test with mice [3] were 69.4 mg/kg and 4 mg/kg, respectively. Moreover, in test [2] (calculated from Kr and Kdep, read-out: Ki (apparent affinity for the inactivated state)), the Ki is 3.6 µM.

The values above are taken from patent US9051240B2, “Substituted 2-[2-(phenyl) ethylamino] alkaneamide derivatives and their use as sodium and/or calcium channel modulators” (Newron Pharmaceuticals S.P.A., priority 2007, dated 2015).
